Test results reported in publication PMC6272887, “Discovery of Potent c-MET Inhibitors with New Scaffold Having Different Quinazoline, Pyridine and Tetrahydro-Pyridothienopyrimidine Headgroups” (Molecules, 2016).
Where two headings read alike, the source gives them in different places.

Legend:
[1] = test system: MCF-7 (human breast cancer); assay: Cell proliferative assay (MTT), MCF-7; format: cell-based; conditions: MCF-7 cells, read-out: Proliferative Inhibition (IC50, µM) MCF-7
Experimental: (§1) The anti-proliferative activities of synthesized compounds against HeLa, Hep-G2 and MCF-7 cells were evaluated by MTT assay. HeLa cells were grown to log phase in RPMI 1640 medium supplemented with 10% fetal bovine serum. Hep-G2 and MCF-7 cells were grown to log phase in DMEM medium supplemented with 10% fetal bovine serum. After diluting to […] with the complete medium, 100 µL of the obtained cell suspension was added to each well of 96-well culture plates. The subsequent incubation was permitted at 37 °C, 5% CO2 atmosphere for 48 h before the anti-proliferative assessments. Tested samples at pre-set concentrations were added to 6 wells. Before the anti-proliferative assessments, 20 µL of PBS containing 2.5 mg∙mL^−1 of MTT was added to each well. Four h later, 100 µL extraction solution (DMSO) was added to each well and the optical density was measured at a wavelength of 570 nm on an ELISA microplate reader.

c-MET = target: T1, c-MET (Homo sapiens, UniProt P08581); assay: In vitro kinase assay (HTScan MET Kinase Assay Kit, colorimetric ELISA); format: biochemical; conditions: ATP 10 µM; three independent determinations; read-out: Enzymatic Inhibition (IC50, µM) c-MET
T1 construct: purchased Cell Signaling Technology, Inc
Experimental: In vitro kinase inhibitory ability was determined using HTScan MET Kinase Assay Kit, HTScan VEGF Receptor 2 Kinase Assay Kit, HTScan c-Kit Kinase Assay Kit, HTScan PDGF Receptor β Kinase Assay Kit and HTScan EGFR Kinase Assay Kit(purchased from Cell Signaling Technology, Inc. Danvers, MA, USA) by colorimetric ELISA assay according to the manufacturer’s instructions. Briefly, reaction cocktail containing recombinant human MET kinase or other kinases were incubated with various concentrations of tested compounds or DMSO (0.1%) for 5 min at room temperature, and then ATP/substrate peptide cocktail was added to the pre-incubated reaction cocktail. After incubation at room temperature for 30 min, the reaction was stopped and transferred to a 96-wellstreptavidin-coated plate, and incubated for 1 h at room temperature. Primary antibody (phosphorylated tyrosine monoclonal antibody (pTyr-100), 1:1000 in PBS/T with 1% bovine serum albumin (BSA)) was added into per well until the wells were washed thrice with PBS/T. After incubated at room temperature for 1 h, phosphorylation of the substrate was monitored with HRP-labeled anti-mouse IgG antibody (1:500 in PBS/T with 1% BSA), followed by a chromogenic reaction. Finally, the kinase assay was detected at 450 nm with microplate reader. The reaction processed with only DMSO (0.1%) served as a vehicle control. […] The kinase assay was performed thrice independently.

[2] = test system: Hep-G2 (human liver cancer); assay: Cell proliferative assay (MTT), Hep-G2; format: cell-based; conditions: read-out: Proliferative Inhibition (IC50, µM) Hep-G2
Experimental: as §1

[3] = test system: HeLa (human cervical carcinoma); assay: Cell proliferative assay (MTT), HeLa; format: cell-based; conditions: HeLa cells, read-out: Proliferative Inhibition (IC50, µM) HeLa
Experimental: as §1

[4] = Homo sapiens, HepG2, Hep-G2 cells

T1 sequence (P08581 25-1390): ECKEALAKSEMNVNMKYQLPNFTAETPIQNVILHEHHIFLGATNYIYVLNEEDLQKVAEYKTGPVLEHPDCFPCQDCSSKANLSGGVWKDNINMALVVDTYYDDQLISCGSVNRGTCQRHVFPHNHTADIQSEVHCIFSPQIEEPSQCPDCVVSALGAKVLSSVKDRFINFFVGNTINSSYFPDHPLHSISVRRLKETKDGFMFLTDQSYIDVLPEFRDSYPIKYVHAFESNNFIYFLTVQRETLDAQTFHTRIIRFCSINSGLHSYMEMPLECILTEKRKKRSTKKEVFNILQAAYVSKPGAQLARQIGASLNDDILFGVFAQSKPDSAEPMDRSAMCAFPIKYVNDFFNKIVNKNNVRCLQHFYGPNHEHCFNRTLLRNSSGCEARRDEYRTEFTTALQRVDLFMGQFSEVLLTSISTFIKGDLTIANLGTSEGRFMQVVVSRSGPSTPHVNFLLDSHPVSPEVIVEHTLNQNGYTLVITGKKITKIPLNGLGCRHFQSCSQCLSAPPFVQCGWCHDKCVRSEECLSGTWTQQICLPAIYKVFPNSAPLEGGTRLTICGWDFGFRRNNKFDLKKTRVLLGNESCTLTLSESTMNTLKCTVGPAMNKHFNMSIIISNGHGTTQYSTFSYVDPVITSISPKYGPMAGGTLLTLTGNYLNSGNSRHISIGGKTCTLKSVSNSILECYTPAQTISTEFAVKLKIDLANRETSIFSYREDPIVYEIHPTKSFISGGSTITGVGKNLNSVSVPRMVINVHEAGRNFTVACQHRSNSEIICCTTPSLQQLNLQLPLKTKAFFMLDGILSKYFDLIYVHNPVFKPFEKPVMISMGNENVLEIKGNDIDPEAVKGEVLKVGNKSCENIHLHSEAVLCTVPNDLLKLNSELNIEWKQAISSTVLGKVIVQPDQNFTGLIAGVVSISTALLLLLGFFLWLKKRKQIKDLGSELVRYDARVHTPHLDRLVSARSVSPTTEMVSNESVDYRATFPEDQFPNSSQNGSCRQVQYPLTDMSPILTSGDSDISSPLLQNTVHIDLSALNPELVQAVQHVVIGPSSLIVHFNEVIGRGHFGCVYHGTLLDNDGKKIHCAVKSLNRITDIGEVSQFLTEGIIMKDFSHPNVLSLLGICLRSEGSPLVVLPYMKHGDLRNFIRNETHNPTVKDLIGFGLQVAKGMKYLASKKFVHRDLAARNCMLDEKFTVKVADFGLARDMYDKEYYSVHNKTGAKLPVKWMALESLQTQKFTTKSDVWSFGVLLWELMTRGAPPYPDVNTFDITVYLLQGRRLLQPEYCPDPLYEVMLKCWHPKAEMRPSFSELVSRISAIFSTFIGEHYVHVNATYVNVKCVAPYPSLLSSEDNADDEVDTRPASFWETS

Compound	IC50 ([1]; Homo sapiens, MCF7, MTT assay)	IC50 (c-MET)	melting point	IC50 [2, 4]	IC50 ([3]; Homo sapiens, HeLa)	IC50 ([1]; MTT assay)	IC50 ([2]; Hep-G2 cells)	IC50 [3]
COc1cc2ncnc(Oc3cccc(C(=O)Nc4cc(C(C)(C)C)nn4-c4ccccc4)c3)c2cc1OC [Compound 9a, N-(3-(tert-butyl)-1-phenyl-1H-pyrazol-5-yl)-3-((6,7-dimethoxyquinazolin-4-yl)oxy)benzamide]	46.1 ± 0.8 µM	8.4 ± 0.6 µM	217 to 219 °C	38.5 ± 1.3 µM	28.7 ± 1.1 µM			
N-(4-fluorophenyl)-N-{4-((2-(methylcarbamoyl)pyridin-4-yl)oxy)phenyl}cyclobutane-1,1-dicarboxamide [Compound 13f]		> 10 µM				> 100 µM	> 100 µM	87.8 ± 0.13 µM
CC(C)(C)OC(=O)N1CCc2c(sc3ncnc(Oc4ccc(NC(=O)C(C)(C)C(=O)Nc5ccc(F)cc5)cc4F)c23)C1 [Compound 13g, tert-butyl-4-{2-fluoro-4-(3-((4-fluorophenyl)amino)-2,2-dimethyl-3-oxopropanamido)phenoxy}-5,6-dihydropyrido(4’,3’:4,5)thieno(2,3-d)pyrimidine-7(8H)-carboxylate]	27.7 ± 0.35 µM	9.4 ± 0.6 µM	126 to 128 °C	> 100 µM	> 100 µM			
COc1ccc(NC(=O)c2cccc(Oc3ncnc4cc(OC)c(OC)cc34)c2)cc1OC [Compound 11a, N-(3,4-dimethoxyphenyl)-3-((6,7-dimethoxyquinazolin-4-yl)oxy)benzamide]	3.4 ± 0.21 µM	0.52 ± 0.05 µM	220 to 222 °C	> 100 µM	14.1 ± 0.16 µM			
COc1ccc(NC(=O)c2cccc(Oc3ncnc4sc5c(c34)CCN(C(=O)OC(C)(C)C)C5)c2)cc1OC [Compound 11g, tert-butyl 4-{3-((3,4-dimethoxyphenyl)carbamoyl)phenoxy}-5,6-dihydropyrido(4’,3’:4,5)thieno(2,3-d)pyrimidine-7(8H)-carboxylate]	17.3 ± 0.38 µM	1.4 ± 0.1 µM	103 to 105 °C	> 100 µM	4.4 ± 0.26 µM			
CNC(=O)c1cc(Oc2cccc(C(=O)Nc3ccc(OC)c(OC)c3)c2)ccn1 [Compound 11d, 4-{3-((3,4-dimethoxyphenyl)carbamoyl)phenoxy}-N-methylpicolinamide]	71.2 ± 0.34 µM	> 10 µM		> 100 µM	> 100 µM			
COc1cc2ncnc(Oc3cccc(C(=O)Nc4ccc(F)cc4)c3)c2cc1OC [Compound 11c, 3-((6,7-dimethoxyquinazolin-4-yl)oxy)-N-(4-fluorophenyl)benzamide]	5.2 ± 0.36 µM	0.08 ± 0.04 µM	178 to 180 °C	10.1 ± 0.2 µM	0.9 ± 0.12 µM			
COc1cc2ncnc(Oc3cccc(C(=O)Nc4ccc(Cl)cc4)c3)c2cc1OC [Compound 11b, N-(4-chlorophenyl)-3-((6,7-dimethoxyquinazolin-4-yl)oxy)benzamide]	7.8 ± 0.14 µM	0.12 ± 0.03 µM	203 to 205 °C	9.2 ± 0.17 µM	1.8 ± 0.06 µM			
COc1cc2ncnc(Oc3ccc(NC(=O)C(C)(C)C(=O)Nc4ccc(F)cc4)cc3F)c2cc1OC [Compound 13a, N^1-{4-((6,7-dimethoxyquinazolin-4-yl)oxy)-3-fluorophenyl}-N^3-(4-fluorophenyl)-2,2-dimethylmalonamide]	71.8 ± 0.31 µM	7.1 ± 0.18 µM	210 to 212 °C	> 100 µM	> 100 µM			
CNC(=O)c1cc(Oc2cccc(C(=O)Nc3ccc(Cl)cc3)c2)ccn1 [Compound 11e, 4-{3-((4-chlorophenyl)carbamoyl)phenoxy}-N-methylpicolinamide]	34.5 ± 0.36 µM	7.4 ± 0.07 µM		> 100 µM	26.4 ± 0.2 µM			
N-(4-fluorophenyl)-N-{4-((2-(methylcarbamoyl)pyridin-4-yl)oxy)phenyl}cyclopropane-1,1-dicarboxamide [Compound 13e]		> 10 µM				> 100 µM	> 100 µM	66.7 ± 0.36 µM
CNC(=O)c1cc(Oc2cccc(C(=O)Nc3ccc(F)cc3)c2)ccn1 [Compound 11f, 4-{3-((4-fluorophenyl)carbamoyl)phenoxy}-N-methylpicolinamide]	42.1 ± 0.27 µM	5.3 ± 0.05 µM		> 100 µM	27.8 ± 0.34 µM			
CC(C)(C)OC(=O)N1CCc2c(sc3ncnc(Oc4cccc(C(=O)Nc5ccc(F)cc5)c4)c23)C1 [Compound 11i, tert-butyl 4-{3-((4-fluorophenyl)carbamoyl)phenoxy}-5,6-dihydropyrido(4’,3’:4,5)thieno(2,3-d)pyrimidine-7(8H)-carboxylate]	1.1 ± 0.31 µM	0.05 ± 0.02 µM		23.2 ± 0.36 µM	1.5 ± 0.11 µM			
CC(C)(C)OC(=O)N1CCc2c(sc3ncnc(Oc4cccc(C(=O)Nc5ccc(Cl)cc5)c4)c23)C1 [Compound 11h, tert-butyl 4-{3-((4-chlorophenyl)carbamoyl)phenoxy}-5,6-dihydropyrido(4’,3’:4,5)thieno(2,3-d)pyrimidine-7(8H)-carboxylate]	22.9 ± 0.22 µM	0.25 ± 0.08 µM		61.9 ± 0.23 µM	10.7 ± 0.18 µM			
COc1cc2ncnc(Oc3ccc(NC(=O)C4(C(=O)Nc5ccc(F)cc5)CCC4)cc3F)c2cc1OC [Compound 13c, N-{4-((6,7-dimethoxyquinazolin-4-yl)oxy)-3-fluorophenyl}-N-(4-fluorophenyl)cyclobutane-1,1-dicarboxamide]	> 100 µM	1.2 ± 0.06 µM	250 to 252 °C	49.1 ± 0.3 µM	50.1 ± 0.25 µM			
CNC(=O)c1cc(Oc2ccc(NC(=O)C(C)(C)C(=O)Nc3ccc(F)cc3)cc2)ccn1 [Compound 13d, N^1-(4-fluorophenyl)-2,2-dimethyl-N^3-{4-((2-(methylcarbamoyl)pyridin-4-yl)oxy]phenyl}malonamide]	91.2 ± 0.26 µM	> 10 µM	113 to 115 °C	> 100 µM	> 100 µM			
CNC(=O)c1cc(Oc2cccc(C(=O)Nc3cc(C(C)(C)C)nn3-c3ccccc3)c2)ccn1 [Compound 9b]	59.7 ± 1.3 µM	> 10 µM		> 100 µM	> 100 µM			
CC(C)(C)OC(=O)N1CCc2c(sc3ncnc(Oc4ccc(NC(=O)C5(C(=O)Nc6ccc(F)cc6)CCC5)cc4F)c23)C1 [Compound 13i, tert-butyl-4-{2-fluoro-4-(1-((4-fluorophenyl)carbamoyl)cyclobutanecarboxamido)phenoxy}-5,6-dihydropyrido(4’,3’:4,5)thieno(2,3-d)pyrimidine-7(8H)-carboxylate]	21.7 ± 0.16 µM	0.25 ± 0.08 µM	101 to 103 °C	43.2 ± 0.26 µM	4.2 ± 0.31 µM			
CC(C)(C)OC(=O)N1CCc2c(sc3ncnc(Oc4cccc(C(=O)Nc5cc(C(C)(C)C)nn5-c5ccccc5)c4)c23)C1 [Compound 9c, tert-butyl 4-{3-((3-(tert-butyl)-1-phenyl-1H-pyrazol-5-yl)carbamoyl)phenoxy}-5,6-dihydropyrido(4’,3’:4,5)thieno(2,3-d)pyrimidine-7(8H)-carboxylate]	66.7 ± 1.5 µM	> 10 µM		> 100 µM	> 100 µM			
